The values that follow come from US20240352000A1, “NOVEL PYRIMIDINE-2,4-DIAMINE DERIVATIVES, PREPARATION METHOD THEREFOR, AND PHARMACEUTICAL COMPOSITION CONTAINING SAME AS ACTIVE INGREDIENT FOR PREVENTION OR TREATMENT OF CANCER” (KOREA RESEARCH INSTITUTE OF CHEMICAL TECHNOLOGY, priority 2021, published 2024).

The target in assay [1] is EGFR del19/T790M/C797S (Homo sapiens (Human), UniProt P00533, C797S/DEL746-750/T790M). As to the kind of experiment: HTRF enzyme assay, EGFR del19/T790M/C797S mutant enzyme. As to conditions: enzyme from SignalChem, 37° C. 2 hours. It is filed as biochemical. As for the experimental part:
(§1) An experiment to measure the activity of the compounds of the present invention against EGFR mutant enzymes was performed as follows using the HTRF system sold by Cisbio. For the EGFR del19/T790M mutant enzyme, a recombinant protein provided by Carna Biosciences was purchased and used, and for the EGFR del19/T790M/C797S mutant enzyme, a protein provided by SignalChem was purchased and used as an enzyme source.
(§2) The composition of the assay buffer used for measuring the activity was 50 mM Tris-HCl pH 7.5, 100 mM NaCl, 7.5 mM MgCl2, 3 mM KCl, 0.01% Tween 20, 0.1% BSA, and 1 mM DTT. Here, an enzyme reaction was performed using ATP at a concentration of […] and a peptide substrate labeled with biotin at a concentration of […]. Analysis of the inhibitory effect of the compounds against the EGFR activity was conducted according to the following analysis reaction recipe. • Component 1: 4 μL of an EGFR mutant enzyme • Component 2: 2 μL of a compound solution • Component 3: 4 μL of ATP and a peptide labeled with biotin
(§3) The enzyme reaction was started by first mixing Component 1 and Component 2 and then adding Component 3. After reaction at 37° C. for 2 hours, […] of measurement solution consisting of streptavidin-XL665 and europium-labeled anti-phosphotyrosine antibody provided by Cisbio was added to the enzyme reaction solution and reacted at room temperature for 1 hour. Finally, the ratio of fluorescence values at 615 nm and 665 nm was obtained using the Envision equipment from Perkin-Elmer to quantitatively measure the enzyme activity and confirmed the inhibitory ability of the compounds. The measurement values measured at seven compound concentrations were analyzed using the Prism program (version 5.01, Graphpad Software, Inc.), and the IC50 value, which is an indicator of the inhibitory ability of the compound, was calculated.
A general note: In TR-FRET formats the signal depends on donor and acceptor labels being close together.

Assay [2] concerns the target EGFR del19/T790M (Homo sapiens (Human), UniProt P00533, DEL746-750/T790M). As to the kind of experiment: HTRF enzyme assay, EGFR del19/T790M mutant enzyme. In kind it is biochemical. As to conditions: recombinant enzyme, 37° C. 2 hours. As for the experimental part:
as §1, §2, §3

The subject of assay [3] is Ba/F3 EGFR del19. In words: CellTiter-Glo cell viability, Ba/F3 EGFR del19. It is filed as cell-based. As to conditions: 72 hours. As for the experimental part: (§4) An experiment to measure the activity of the compounds of the present invention against the mutant Ba/F3 EGFR cell line was performed as follows using the CellTiter-Glo system sold by Promega. The CellTiter-Glo assay is a method to confirm the cell viability by measuring ATP present in cells in cell culture. For the Ba/F3 EGFR del19, Ba/F3 EGFR del19/T790M, Ba/F3 del19/T790M/C797S mutant cell line, a cell line provided by Crown Bioscience was purchased and used. The Ba/F3 EGFR del19, Ba/F3 EGFR del19/T790M, Ba/F3 del19/T790M/C797S mutant cell line was cultured in RPMI containing 10% FBS and 1% penicillin-streptomycin with 1 μg of puromycin in an incubator at 37° C. and 5% CO2.
(§5) Analysis of the inhibitory ability effect of the compounds against EGFR was conducted according to the following analysis reaction recipe.
(§6) 2500 cells/90 μL were passaged and cultured in a 96-well cell culture plate, and after 24 hours, treated with the compound represented by Formula 1 at a concentration of 0, 0.01, 0.03, 0.1, 0.3, 1, 3, and 10 (μM). After reaction for 72 hours, the plate treated with the compound was left at room temperature for 30 minutes, then further treated with 100 μl of reagent, and shaken at room temperature for 10 minutes. Finally, the ratio of fluorescence values at 570 nm was obtained using the equipment to quantitatively measure and confirmed the inhibitory ability of the compounds. The measurement values measured at eight compound concentrations were analyzed using the Prism program (version 5.01, Graphpad Software, Inc.), and the IC50 value, which is an indicator of the inhibitory ability of the compound, was calculated.

The test system of assay [4] is Ba/F3 EGFR del19/T790M/C797S. In words: CellTiter-Glo cell viability, Ba/F3 EGFR del19/T790M/C797S. In kind it is cell-based. Particulars: 72 hours. As for the experimental part: as §4, §5, §6
The subject of assay [5] is Ba/F3 EGFR del19/T790M. In words: CellTiter-Glo cell viability, Ba/F3 EGFR del19/T790M. In kind it is cell-based. Particulars: 72 hours. As for the experimental part:
as §4, §5, §6

Assay [6] relates to Ba/F3 EGFR L858R/T790M/C797S. In words: CellTiter-Glo cell viability, Ba/F3 EGFR L858R/T790M/C797S. As to conditions: 72 hours. It is filed as cell-based. As for the experimental part:
(§7) An experiment to measure the activity of the compounds of the present invention against the mutant Ba/F3 EGFR cell line was performed as follows using the CellTiter-Glo system sold by Promega. The CellTiter-Glo assay is a method to confirm the cell viability by measuring ATP present in cells in cell culture. The Ba/F3 EGFR L858R, Ba/F3 EGFR L858R/T790M, Ba/F3 EGFR L858R/T790M/C797S mutant cell line was used. The Ba/F3 EGFR L858R, Ba/F3 EGFR L858R/T790M, and Ba/F3 EGFR L858R/T790M/C797S mutant cell lines was cultured in RPMI containing 10% FBS and 1% penicillin-streptomycin with 1 μg of puromycin in an incubator at 37° C. and 5% CO2.
as §5
as §6, with “μl” for “μL”
On the technique in general: ATP-based viability assays read luminescence as a measure of living cells.

Assay [7] deals with Ba/F3 EGFR L858R. As to the kind of experiment: CellTiter-Glo cell viability, Ba/F3 EGFR L858R. As to conditions: 72 hours. It is filed as cell-based. As for the experimental part:
as §7, §5
as §6, with “μl” for “μL”

Assay [8] has as its system Ba/F3 EGFR L858R/T790M. In words: CellTiter-Glo cell viability, Ba/F3 EGFR L858R/T790M. It is filed as cell-based. As to conditions: 72 hours. As for the experimental part: as §7, §5
as §6, with “μl” for “μL”

Chain of EGFR del19/T790M (P00533 other isoform, or with tags, fused parts or gaps T790M/del 1-668/del 746-750 limits assumed): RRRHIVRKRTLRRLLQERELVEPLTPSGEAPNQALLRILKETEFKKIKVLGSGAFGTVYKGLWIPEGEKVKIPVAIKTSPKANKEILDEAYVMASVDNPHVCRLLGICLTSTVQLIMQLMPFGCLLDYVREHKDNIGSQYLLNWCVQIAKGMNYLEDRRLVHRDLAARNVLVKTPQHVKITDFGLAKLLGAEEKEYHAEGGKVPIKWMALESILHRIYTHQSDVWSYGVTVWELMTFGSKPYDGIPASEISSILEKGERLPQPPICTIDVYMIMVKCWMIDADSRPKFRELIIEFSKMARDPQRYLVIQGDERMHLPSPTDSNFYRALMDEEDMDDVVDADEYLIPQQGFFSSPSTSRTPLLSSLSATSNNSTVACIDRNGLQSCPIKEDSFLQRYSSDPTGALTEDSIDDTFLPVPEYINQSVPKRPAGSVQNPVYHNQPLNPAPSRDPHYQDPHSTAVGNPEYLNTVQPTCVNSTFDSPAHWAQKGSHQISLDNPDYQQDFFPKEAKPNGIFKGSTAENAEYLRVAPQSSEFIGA
Chain of EGFR del19/T790M/C797S (P00533 other isoform, or with tags, fused parts or gaps T790M/C797S/del 1-694/del 746-750 limits assumed): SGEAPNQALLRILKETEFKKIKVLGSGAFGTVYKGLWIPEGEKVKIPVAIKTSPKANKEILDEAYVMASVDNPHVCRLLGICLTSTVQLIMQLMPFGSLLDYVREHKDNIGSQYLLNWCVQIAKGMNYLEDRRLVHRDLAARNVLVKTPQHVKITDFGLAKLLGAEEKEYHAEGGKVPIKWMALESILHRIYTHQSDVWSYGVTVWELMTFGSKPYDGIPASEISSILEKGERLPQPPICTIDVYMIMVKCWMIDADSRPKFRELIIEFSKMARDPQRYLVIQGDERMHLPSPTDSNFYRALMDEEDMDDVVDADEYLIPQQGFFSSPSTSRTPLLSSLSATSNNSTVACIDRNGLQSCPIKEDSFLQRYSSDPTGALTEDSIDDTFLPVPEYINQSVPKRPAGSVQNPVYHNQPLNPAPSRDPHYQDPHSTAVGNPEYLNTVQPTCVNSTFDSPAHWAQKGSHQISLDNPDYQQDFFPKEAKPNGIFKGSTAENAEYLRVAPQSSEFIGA

For `COc1cc(N2CCC(N(C)C)CC2)ccc1Nc1ncc(Cl)c(Nc2cccc3c2N(S(C)(=O)=O)CC3)n1` [Example 1, 5-chloro-N2-(4-(4-(dimethylamino)piperidin-1-yl)-2-methoxyphenyl)-N4-(1-(methylsulfonyl)indolin-7-yl)pyrimidine-2,4-diamine], the IC50 (commonly the concentration at which inhibition is half-maximal) in assay [1] was under 1 nM; in assay [2] it was under 1 nM; in assay [3], under 30 nM; in assay [4], under 100 nM; in assay [5], under 30 nM; in assay [6] it was under 100 nM. Further, the IC50 in assay [7] and in assay [8] was under 30 nM each time.
Turning to `COc1cc(N(C)CCN(C)C)ccc1Nc1ncc(Cl)c(Nc2cccc3c2N(S(C)(=O)=O)CC3)n1` [Example 3, 5-chloro-N2-(4-((2-(dimethylamino)ethyl)(methyl)amino)-2-methoxyphenyl)-N4-(1-(methylsulfonyl)indolin-7-yl)pyrimidine-2,4-diamine], the half-inhibitory concentration (IC50) in assay [3] was under 100 nM; in assay [4] it was over 100 nM; in assay [5], under 100 nM; in assay [7] it was over 100 nM; in assay [8], over 100 nM.
On to `COc1cc(N2CCC(N(C)C)CC2)ccc1Nc1ncc(Cl)c(Nc2cccc3c2N(S(C)(=O)=O)CCC3)n1` [Example 4, 5-chloro-N2-(4-(4-(dimethylamino)piperidin-1-yl)-2-methoxyphenyl)-N4-(1-(methylsulfonyl)-1,2,3,4-tetrahydroquinolin-8-yl)pyrimidine-2,4-diamine], for which the half-inhibitory concentration (IC50) in assay [1] is under 1 nM; in assay [2], under 1 nM; in assay [3], under 30 nM; in assay [4], under 30 nM; in assay [5] it was under 30 nM; in assay [7], under 100 nM. The IC50 in assay [8] was under 100 nM.
For the compound `COc1cc(N(C)CCN(C)C)ccc1Nc1ncc(Cl)c(Nc2cccc3c2N(S(C)(=O)=O)CCC3)n1` [Example 6, 5-chloro-N2-(4-((2-(dimethylamino)ethyl)(methyl)amino)-2-methoxyphenyl)-N4-(1-(methylsulfonyl)-1,2,3,4-tetrahydroquinolin-8-yl)pyrimidine-2,4-diamine], the IC50 is under 1 nM in assay [1]; 1 nM in assay [2]; under 100 nM in assay [3]; over 100 nM in assay [4]; under 100 nM in assay [5]; over 100 nM in assay [7]. Moreover, the IC50 in assay [8] is under 100 nM.
As for `COc1cc(N2CCC(N3CCN(C)CC3)CC2)ccc1Nc1ncc(C)c(Nc2cccc3c2N(S(C)(=O)=O)CC3)n1` [Example 7, N2-(2-methoxy-4-(4-(4-methylpiperazin-1-yl)piperidin-1-yl)phenyl)-5-methyl-N4-(1-(methylsulfonyl)indolin-7-yl)pyrimidine-2,4-diamine], the IC50 in assay [1] was under 1 nM; in assay [2], under 1 nM; in assay [3], under 30 nM; in assay [4], over 100 nM; in assay [5] it was under 100 nM; in assay [6], over 100 nM. In addition, the IC50 in assay [7] is under 30 nM; in assay [8], under 100 nM.
With `COc1cc(N2CCC(N3CCN(C)CC3)CC2)ccc1Nc1ncc(F)c(Nc2cccc3c2N(S(C)(=O)=O)CC3)n1` [Example 8, 5-fluoro-N2-(2-methoxy-4-(4-(4-methylpiperazin-1-yl)piperidin-1-yl)phenyl)-N4-(1-(methylsulfonyl)indolin-7-yl)pyrimidine-2,4-diamine], the IC50 in assay [1] is under 1 nM; in assay [2] it was under 1 nM; in assay [3], under 100 nM; in assay [4] it was over 100 nM; in assay [5], over 100 nM; in assay [6], over 100 nM. Moreover, the IC50 in assay [7] was under 30 nM; in assay [8], under 100 nM.
As to `COc1cc(N2CCC(N3CCN(C)CC3)CC2)ccc1Nc1ncc(C(F)(F)F)c(Nc2cccc3c2N(S(C)(=O)=O)CC3)n1` [Example 9, N2-(2-methoxy-4-(4-(4-methylpiperazin-1-yl)piperidin-1-yl)phenyl)-N4-(1-(methylsulfonyl)indolin-7-yl)-5-(trifluoromethyl)pyrimidine-2,4-diamine], the IC50 in assay [1] was under 1 nM; in assay [2], under 1 nM; in assay [3], under 30 nM; in assay [4], over 100 nM; in assay [5] it was under 30 nM; in assay [6], over 100 nM. For the same compound, the IC50 was under 100 nM in assay [7] and under 30 nM in assay [8].
Take `COc1cc(N2CCC(N3CCN(C)CC3)CC2)ccc1Nc1ncc(C(=O)OC(C)C)c(Nc2cccc3c2N(S(C)(=O)=O)CC3)n1` [Example 10, isopropyl 2-((2-methoxy-4-(4-(4-methylpiperazin-1-yl)piperidin-1-yl)phenyl)amino)-4-((1-(methylsulfonyl)indolin-7-yl)amino)pyrimidine-5-carboxylate]: the concentration for half-maximal inhibition (IC50) in assay [1] is 50 nM; in assay [2] it was 60 nM; in assay [3], over 100 nM; in assay [4], over 100 nM; in assay [5], over 100 nM; in assay [6], over 100 nM. Besides, the IC50 is under 100 nM in assay [7] and over 100 nM in assay [8].
With `COC(=O)c1cnc(Nc2ccc(N3CCC(N4CCN(C)CC4)CC3)cc2OC)nc1Nc1cccc2c1N(S(C)(=O)=O)CC2` [Example 11, methyl 2-((2-methoxy-4-(4-(4-methylpiperazin-1-yl)piperidin-1-yl)phenyl)amino)-4-((1-(methylsulfonyl)indolin-7-yl)amino)pyrimidine-5-carboxylate], the IC50 was 5 nM in assay [1]; 2 nM in assay [2]; under 100 nM in assay [3]; over 100 nM in assay [4]; over 100 nM in assay [5]; over 100 nM in assay [6]. For the same compound, the IC50 in assay [7] and in assay [8] was under 100 nM throughout.
